Target: Programmed cell death protein 1/Programmed cell death 1 ligand 1 (Homo sapiens, UniProt Q15116+Q9NZQ7)
Test: In Vitro Activity Assay: 1) Principle: PD-1 protein is with HIS tag, and PD-1 ligand PD-L1 is with hFc tag. Eu labeled anti-hFc antibody and XL665 labeled anti-HIS antibody are combined with the above two label proteins respectively. After laser excitation, energy can be transferred from donor Eu to receptor XL665, allowing XL665 to glow. […] Reagents should be dispensed in the following order. For 384-well white ELISA plate, 2 μl of diluent or target compound diluted with diluent was added to each well, and then 4 μl of PD-1 protein and 4 μl of PD-L1 protein were added per well, incubated for 15 min at room temperature; and 10 μl of a mixture of anti-Tag1-Eu3+ and anti-Tag2-XL665 was added per well and incubated for 1 h to 4 h at room temperature and the fluorescence signals at 665 nm and 620 nm were measured with an Envison instrument. HTRF rate=(665 nm/620 nm)[…]. 8-10 concentrations were detected for each compound and IC50 was calculated by Graphpad software.
Type: protein-complex assay

Sequence of Programmed cell death protein 1/Programmed cell death 1 ligand 1 (Q15116 whole entry): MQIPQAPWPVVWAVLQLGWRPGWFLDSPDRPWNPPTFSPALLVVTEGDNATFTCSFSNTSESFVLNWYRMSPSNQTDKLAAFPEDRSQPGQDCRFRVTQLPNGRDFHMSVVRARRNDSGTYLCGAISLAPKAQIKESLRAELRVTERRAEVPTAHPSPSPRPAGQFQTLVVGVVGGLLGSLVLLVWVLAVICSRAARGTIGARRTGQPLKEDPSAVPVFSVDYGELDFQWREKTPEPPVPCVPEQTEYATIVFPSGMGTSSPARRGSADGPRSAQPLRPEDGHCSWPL
Sequence of Programmed cell death protein 1/Programmed cell death 1 ligand 1 (Q9NZQ7 whole entry): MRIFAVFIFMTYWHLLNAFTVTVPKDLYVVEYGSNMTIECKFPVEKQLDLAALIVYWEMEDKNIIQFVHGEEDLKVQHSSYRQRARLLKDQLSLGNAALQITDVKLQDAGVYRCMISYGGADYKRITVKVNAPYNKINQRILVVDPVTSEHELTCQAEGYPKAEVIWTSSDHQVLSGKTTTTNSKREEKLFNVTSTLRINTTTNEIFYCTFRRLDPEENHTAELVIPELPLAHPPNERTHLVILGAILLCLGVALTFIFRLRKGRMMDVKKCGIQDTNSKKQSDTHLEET

| Structure (SMILES) | IC50 [nM] |
| --- | --- |
| N#Cc1cccc(COc2cc(OCc3cccc(-c4ccccc4)c3Br)ccc2CN2CCOCC2)c1 | 458 |
| CS(=O)(=O)NCCNCc1ccc(OCc2cccc(-c3ccccc3)c2Br)cc1OCc1cccc(C#N)c1 | 979 |
| N#Cc1cccc(COc2cc(OCc3cccc(-c4ccccc4)c3Br)c(Cl)cc2CNCCO)c1 | 5.29 |

Reference: ChEMBL document CHEMBL5728311, “Benzyl phenyl ether derivative, preparation method therefor, and pharmaceutical composition and uses thereof” (2021)
